Results as given in patent US10035778B2, “Meta-azacyclic amino benzoic acid derivatives as pan integrin antagonists” (Saint Louis University, priority 2015, dated 2018).

Assays:
[1] = Oral (PO) cassette pharmacokinetic study in male Sprague-Dawley rats; format: in vivo; conditions: plasma; male Sprague-Dawley rat, 2 mg/kg oral gavage cassette in 0.5% methylcellulose; read-out: AUC (0-inf) after a 2 mg/kg PO dose in rat
Procedure: (§1) A minimally sufficient volume of dimethylsulfoxide (DMSO) was added to each test compound to achieve solubilization. For intravenous (IV) delivery, compounds were then formulated as solutions in glycerol formal: saline (either 20:80 or 40:60 v/v) (Sigma Chemicals, St. Louis). For oral (PO) administration, compounds were formulated with 0.5% methylcellulose. Five to six compound solutions were combined into a singled mixed solution for IV and PO cassette administration with final DMSO concentrations <0.6% or <1.2%, for the IV and PO cassettes, respectively. Analytes were detected in test samples using an LC/MS/MS (liquid chromatography/mass spectrometry) system consisting of an LC-20AD pump (Shimadzu, Kyoto, Japan), an HTC PAL autosampler (Leap technologies, Carrboro, N.C.), and a Sciex API-4000 mass spectrometer in ESI mode (AB Sciex, Foster City, Calif.). An Amour C18 reverse phase column (Analytical Sales and Services, Pompton Plains, N.J.) was used for chromatographic separation.
(§2) Pharmacokinetic (PK) studies conducted at Saint Louis University used male Sprague-Dawley rats with an initial body weight of 200 to 220 g. IV PK studies were performed with the following compounds: Examples 1-3 and 5-17 and comparison compounds C12-C18, C29, and C30. Animals were allowed free access to food and water. Rats were individually housed and connected to jugular vein catheters. Each cassette formulation was administered intravenously to two rats (1 mL/kg body weight). Each cassette formulation contained 5-6 compounds at 1 mg/kg in either 20:80 or 40/60 glycerol formal/saline (v/v). Blood was collected manually via the catheter into lithium-heparin tubes at 0.017, 0.083, 0.5, 1, 2, 4, 6 and 24 hours post-dose. Animals were euthanized with CO2 at the end of the experiment.
Oral PK studies were conducted with the following compounds: Examples 1-3 and 5-17 and comparison compounds C12, C14-16 and C29-30. The PO cassette formulations were administered via oral gavage to two rats (10 mL/kg body weight) containing 5-6 compounds per cassette. The oral dose was administered at 2 mg/kg/compound in 0.5% methylcellulose. Blood collection time points were 0.25, 0.5, 1, 2, 4, 6 and 24 hours post-dose into lithium-heparin tubes. Animals were euthanized with CO2 at the end of the experiment.
(§3) Internal standard was added to all samples at 200 ng/mL (final), as well as 150 μL of acetonitrile. Plasma samples (50 μL total volume) were diluted with control nave rat plasma as appropriate to bring the sample measurement into the linear dynamic range of the standard curve. The samples were capped and mixed on a multi-plate vortexer for 5 minutes and centrifuged for 5 minutes at 3200 rmp. The supernant was transferred to 96-well sample plate and capped for LC/MS/MS analysis. Compounds were optimized and monitored for their respective MRM transitions. The mobile phases consisted of 0.1% formic acid (aqueous) and 100% acetonitrile (organic) with an Amour C18 reverse phase column (2.1×30 mm, 5 micron) at a flow rate of 0.35 mL/min. The starting phase was 10% acetonitrile for the 0.9 minutes then increased to 90% acetonitrile over 0.4 minutes, and was maintained for an additional 0.2 minutes before returning to 10% acetonitrile over 0.4 minutes. The 10% acetonitrile was held for an additional 1.6 minutes. Peak areas were integrated using Analyst 1.5.1 (AB Sciex, Foster City, Calif.).

[2] = IV cassette pharmacokinetic study in male Sprague-Dawley rats (Saint Louis University); format: in vivo; conditions: plasma; male Sprague-Dawley rat, 1 mg/kg IV cassette, sampling to 24 h; read-out: plasma t½ after 1 mg/kg IV bolus dose in rat (converted)
Procedure: as §1, §2, §3

[3] = molecular target: Recombinant human integrin α5β1 (Homo sapiens (Human), UniProt P05556+P08648); test: Solid Phase Receptor Assay (SPRA) for α5β1 function; format: binding; conditions: fibronectin-coated plate
Procedure: 1. Solid Phase Receptor Assay (SPRA) for α5β1 Function
Purified human fibronectin (R&D Systems, 1918-FN) diluted to 2 μg/mL in TBS+ buffer (25 mM Tris pH 7.4, 137 mM NaCl, 2.7 mM KCl, 1 mM CaCl2, 1 mM MgCl2, 1 mM MnCl2) was added to wells (50 μL/well) of a 96-well half-well transparent microtiter plate (Greiner 675061) and incubated overnight at 4° C. Wells were washed 3 times with 150 μL TBS+ and 150 μL of blocking buffer (TBS+ with 1% bovine serum albumin, Sigma A7906) were added. The plate was incubated for 1 hr at 37° C. and then washed 3× with TBS+ buffer. Recombinant human integrin α5β1 (R&D Systems, 3230-A5) was diluted to 0.1 μg/mL in TBS+/0.1% bovine serum albumin. Compounds were diluted 1:100 into the integrin solution and then 50 μL added to empty wells of the washed fibronectin-coated plate according to a standard template with each sample repeated in triplicate. After incubation for two hours at room temperature, the plate was washed 3× with 150 μL of TBS+ buffer. To each well, 50 μl of biotinylated anti-α5 antibody (R&D Systems, BAF1864) at 0.5 μg/mL in TBS+/0.1% BSA were added and the plate covered and incubated for 1 hr at room temperature. After washing the plate 3× with 150 μL of TBS+ buffer, 50 μL of streptavidin-conjugated horseradish peroxidase (R&D Systems, DY998) diluted in TBS+ blocking buffer were added to the wells and the plate incubated for 20 min at room temperature. The plate was washed 3× with TBS+ buffer followed by 50 μL of room temperature TMB substrate (Sigma, T444) added to each well and the plate incubated for 20 min at room temperature. Plates were read by colorimetric detection at 650 nm wavelength using a Tecan Safire II plate reader. Concentration-response curves were constructed by non-linear regression (best fit) analysis, and IC50 values were calculated for each compound.

Chain of Recombinant human integrin α5β1 (P08648 42-995): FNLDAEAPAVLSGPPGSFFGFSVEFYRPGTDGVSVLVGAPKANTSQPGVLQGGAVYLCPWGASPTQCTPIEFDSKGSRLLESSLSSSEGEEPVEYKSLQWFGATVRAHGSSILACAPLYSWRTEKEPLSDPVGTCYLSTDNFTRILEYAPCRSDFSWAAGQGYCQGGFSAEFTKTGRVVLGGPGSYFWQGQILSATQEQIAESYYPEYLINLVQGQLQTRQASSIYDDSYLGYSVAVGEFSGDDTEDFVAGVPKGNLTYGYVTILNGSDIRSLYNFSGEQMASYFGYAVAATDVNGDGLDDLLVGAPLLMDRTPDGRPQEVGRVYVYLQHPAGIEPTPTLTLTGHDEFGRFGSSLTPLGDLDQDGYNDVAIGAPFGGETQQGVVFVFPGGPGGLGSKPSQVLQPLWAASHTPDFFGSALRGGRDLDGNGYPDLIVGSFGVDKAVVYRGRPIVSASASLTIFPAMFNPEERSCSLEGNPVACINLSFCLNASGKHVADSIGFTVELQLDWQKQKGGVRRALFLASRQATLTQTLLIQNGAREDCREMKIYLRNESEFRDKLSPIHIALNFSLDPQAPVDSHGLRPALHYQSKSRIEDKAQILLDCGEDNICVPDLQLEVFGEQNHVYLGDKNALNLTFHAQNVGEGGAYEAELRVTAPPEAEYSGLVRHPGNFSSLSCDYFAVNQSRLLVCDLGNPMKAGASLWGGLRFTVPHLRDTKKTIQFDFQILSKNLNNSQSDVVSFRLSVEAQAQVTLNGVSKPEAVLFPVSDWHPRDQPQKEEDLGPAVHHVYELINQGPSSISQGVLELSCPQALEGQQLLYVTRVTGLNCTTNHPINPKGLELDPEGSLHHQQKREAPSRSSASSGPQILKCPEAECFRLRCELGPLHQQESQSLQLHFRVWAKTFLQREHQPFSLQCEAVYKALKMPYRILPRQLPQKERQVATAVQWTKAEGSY
Chain of Recombinant human integrin α5β1 (P05556 21-728): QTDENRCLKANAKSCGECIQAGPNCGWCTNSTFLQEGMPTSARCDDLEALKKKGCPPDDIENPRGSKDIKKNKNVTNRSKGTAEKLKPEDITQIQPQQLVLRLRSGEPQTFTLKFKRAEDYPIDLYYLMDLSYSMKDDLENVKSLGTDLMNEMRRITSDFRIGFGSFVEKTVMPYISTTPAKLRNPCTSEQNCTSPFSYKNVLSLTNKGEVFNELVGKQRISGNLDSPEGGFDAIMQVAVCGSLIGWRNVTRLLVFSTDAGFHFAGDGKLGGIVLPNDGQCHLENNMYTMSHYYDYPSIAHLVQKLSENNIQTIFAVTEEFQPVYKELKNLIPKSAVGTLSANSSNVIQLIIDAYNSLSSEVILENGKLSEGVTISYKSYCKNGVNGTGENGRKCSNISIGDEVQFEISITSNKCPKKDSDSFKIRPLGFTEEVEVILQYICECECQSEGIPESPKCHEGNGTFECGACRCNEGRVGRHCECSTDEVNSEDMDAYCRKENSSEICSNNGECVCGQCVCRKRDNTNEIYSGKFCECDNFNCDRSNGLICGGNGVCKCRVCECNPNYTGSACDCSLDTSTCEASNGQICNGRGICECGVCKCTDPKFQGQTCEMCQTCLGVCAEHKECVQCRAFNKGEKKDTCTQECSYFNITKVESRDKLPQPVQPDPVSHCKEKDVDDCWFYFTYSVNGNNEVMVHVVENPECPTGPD

Structure (SMILES)	AUC(0-inf) [1] [ng·h/mL]	half-life [2] [h]	IC50 [3] [nM]
O=C(O)C[C@H](NC(=O)CNC(=O)c1cc(O)cc(NC2=NCC(O)CN2)c1)c1cc(Cl)cc(Br)c1 (stereo partly drawn) [Example 6, (3S)-3-[3-bromo-5-chloro-phenyl)-3-(2-(3-hydroxy-5-((5-hydroxy-1,4,5,6-tetrahydropyrimidin-2-yl)amino)benzamido)acetamido]propanoic acid]	34400	16.7	0.6
O=C(O)C[C@H](NC(=O)CNC(=O)c1cncc(NC2=NCC(O)CN2)c1)c1cc(Cl)cc(Br)c1 (stereo partly drawn) [Example 8, (3S)-3-(3-bromo-5-chloro-phenyl)-3-[[2-[[5-[(5-hydroxy-1,4,5,6-tetrahydropyrimidin-2-yl)amino]pyridine-3-carbonyl]amino]acetyl]amino]propanoic acid]	4470	23.9	0.6
O=C(O)C[C@H](NC(=O)CNC(=O)c1cc(O)cc(NC2=NCC(O)CN2)c1)c1cc(Cl)cc(C(F)(F)F)c1 (stereo partly drawn) [Example 5, (3S)-3-[3-chloro-5-(trifluoromethyl)phenyl)-3-(2-(3-hydroxy-5-((5-hydroxy-1,4,5,6-tetrahydropyrimidin-2-yl)amino)benzamido)acetamido]propanoic acid]	11400	6.6	0.8

Continued, values first:

AUC(0-inf) [1] [ng·h/mL]	half-life [2] [h]	IC50 [3] [nM]	Structure (SMILES)
9140	24	0.5	Cc1cc(Br)cc([C@H](CC(=O)O)NC(=O)CNC(=O)c2cc(O)cc(NC3=NCC(O)CN3)c2)c1 (stereo partly drawn) [Example 11, (3S)-3-[3-bromo-5-methyl-phenyl)-3-(2-(3-hydroxy-5-((5-hydroxy-1,4,5,6-tetrahydropyrimidin-2-yl)amino)benzamido)acetamido)propanoic acid]
9110	13.7	2	Cc1cc(Cl)cc([C@H](CC(=O)O)NC(=O)CNC(=O)c2cc(O)cc(NC3=NCC(O)CN3)c2)c1 (stereo partly drawn) [Example 12, (3S)-3-[3-chloro-5-methyl-phenyl)-3-(2-(3-hydroxy-5-((5-hydroxy-1,4,5,6-tetrahydropyrimidin-2-yl)amino)benzamido)acetamido)propanoic acid]
15600	23.8	1 ± 0.3	O=C(O)C[C@H](NC(=O)CNC(=O)c1cc(O)cc(NC2=NCC(O)CN2)c1)c1cc(Cl)cc(Cl)c1 (stereo partly drawn) [Example 15, (3S)-3-[3,5-dichloro-phenyl)-3-(2-(3-hydroxy-5-((5-hydroxy-1,4,5,6-tetrahydropyrimidin-2-yl)amino)benzamido)acetamido)propanoic acid]
